Laboratory results from ChEMBL document CHEMBL4229426, “Synthesis, antitumor activity evaluation and mechanistic study of novel hederacolchiside A1 derivatives bearing an aryl triazole moiety” (Bioorg Med Chem, 2018).
pIC50: −log10 of the molar value. The source made the active and inactive calls. The rule behind the calls is not given here.

Experiments:
HepG2 [1] = experiment: Induction of apoptosis in human HepG2 cells assessed as early apoptotic cells at 2 uM after 48 hrs by Annexin V-FITC/propidium iodide staining based flow cytometry (reference value: 4.42%); type: functional
A549 = experiment: Antiproliferative activity against human A549 cells after 48 hrs by MTT assay; type: functional, cell-based; conditions: A549, 48 h
HL-60 = experiment: Antiproliferative activity against human HL60 cells after 48 hrs by MTT assay; type: functional, cell-based; conditions: HL-60, 48 h
HepG2 [2] = experiment: Upregulation of caspase-9 protein expression in human HepG2 cells at 2 uM after 48 hrs by Western blot analysis; type: functional, cell-based
HepG2 [3] = experiment: Cell cycle arrest in human HepG2 cells assessed as accumulation at G1-phase at 1 uM after 48 hrs by propidium iodide staining based flow cytometry (reference value: 40.6%); type: functional
HepG2 [4] = experiment: Antiproliferative activity against human HepG2 cells after 48 hrs by MTT assay; type: functional, cell-based; conditions: HepG2, 48 h
HepG2 [5] = experiment: Induction of apoptosis in human HepG2 cells assessed as late apoptotic cells at 2 uM after 48 hrs by Annexin V-FITC/propidium iodide staining based flow cytometry (reference value: 0.02%); type: functional
HepG2 [6] = experiment: Cell cycle arrest in human HepG2 cells assessed as accumulation at S-phase at 2 uM after 48 hrs by propidium iodide staining based flow cytometry (reference value: 26.79%); type: functional
HepG2 [7] = experiment: Induction of apoptosis in human HepG2 cells assessed as late apoptotic cells at 1 uM after 48 hrs by Annexin V-FITC/propidium iodide staining based flow cytometry (reference value: 0.02%); type: functional
HepG2 [8] = experiment: Cell cycle arrest in human HepG2 cells assessed as accumulation at G2-phase at 2 uM after 48 hrs by propidium iodide staining based flow cytometry (reference value: 32.61%); type: functional
HepG2 [9] = experiment: Induction of apoptosis in human HepG2 cells assessed as early apoptotic cells at 0.5 uM after 48 hrs by Annexin V-FITC/propidium iodide staining based flow cytometry (reference value: 4.42%); type: functional
HT-29 = experiment: Antiproliferative activity against human HT-29 cells after 48 hrs by MTT assay; type: functional, cell-based; conditions: HT-29, 48 h
HepG2 [10] = experiment: Induction of apoptosis in human HepG2 cells assessed as live cells at 1 uM after 48 hrs by Annexin V-FITC/propidium iodide staining based flow cytometry (reference value: 95.5%); type: functional
HepG2 [11] = experiment: Cell cycle arrest in human HepG2 cells assessed as accumulation at G2-phase at 0.5 uM after 48 hrs by propidium iodide staining based flow cytometry (reference value: 32.61%); type: functional
HepG2 [12] = experiment: Upregulation of cytochrome-c protein expression in human HepG2 cells assessed as ratio of cytochrome-c to GAPDH expression level at 0.5 to 2 uM after 48 hrs by Western blot analysis (reference value: 0.05); type: functional
HepG2 [13] = experiment: Induction of mitochondrial membrane depolarization in human HepG2 cells after 48 hrs by JC-1 staining based flow cytometry; type: functional, cell-based
HepG2 [14] = experiment: Cell cycle arrest in human HepG2 cells assessed as accumulation at S-phase at 0.5 uM after 48 hrs by propidium iodide staining based flow cytometry (reference value: 26.79%); type: functional
HepG2 [15] = experiment: Induction of apoptosis in human HepG2 cells assessed as necrotic cells at 0.5 uM after 48 hrs by Annexin V-FITC/propidium iodide staining based flow cytometry (reference value: 0.06%); type: functional
HepG2 [16] = experiment: Upregulation of caspase-9 protein expression in human HepG2 cells assessed as ratio of caspase-9 to GAPDH expression level at 1 uM after 48 hrs by Western blot analysis (reference value: 0.17); type: functional
HepG2 [17] = experiment: Cell cycle arrest in human HepG2 cells after 48 hrs by propidium iodide staining based flow cytometry; type: functional
HepG2 [18] = experiment: Cell cycle arrest in human HepG2 cells assessed as accumulation at G1-phase at 2 uM after 48 hrs by propidium iodide staining based flow cytometry (reference value: 40.6%); type: functional
HepG2 [19] = experiment: Induction of apoptosis in human HepG2 cells assessed as necrotic cells at 2 uM after 48 hrs by Annexin V-FITC/propidium iodide staining based flow cytometry (reference value: 0.06%); type: functional
U-937 = experiment: Antiproliferative activity against human U937 cells after 48 hrs by MTT assay; type: functional, cell-based; conditions: U-937, 48 h
HepG2 [20] = experiment: Cell cycle arrest in human HepG2 cells assessed as accumulation at G1-phase at 0.5 uM after 48 hrs by propidium iodide staining based flow cytometry (reference value: 40.6%); type: functional
HepG2 [21] = experiment: Induction of apoptosis in human HepG2 cells assessed as live cells at 2 uM after 48 hrs by Annexin V-FITC/propidium iodide staining based flow cytometry (reference value: 95.5%); type: functional
HepG2 [22] = experiment: Cell cycle arrest in human HepG2 cells assessed as accumulation at S-phase at 1 uM after 48 hrs by propidium iodide staining based flow cytometry (reference value: 26.79%); type: functional
HepG2 [23] = experiment: Induction of apoptosis in human HepG2 cells assessed as necrotic cells at 1 uM after 48 hrs by Annexin V-FITC/propidium iodide staining based flow cytometry (reference value: 0.06%); type: functional
HepG2 [24] = experiment: Induction of apoptosis in human HepG2 cells assessed as live cells at 0.5 uM after 48 hrs by Annexin V-FITC/propidium iodide staining based flow cytometry (reference value: 95.5%); type: functional
HepG2 [25] = experiment: Upregulation of cytochrome-c protein expression in human HepG2 cells after 48 hrs by Western blot analysis; type: functional, cell-based
HepG2 [26] = experiment: Induction of apoptosis in human HepG2 cells assessed as early apoptotic cells at 1 uM after 48 hrs by Annexin V-FITC/propidium iodide staining based flow cytometry (reference value: 4.42%); type: functional
HepG2 [27] = experiment: Upregulation of caspase-3 protein expression in human HepG2 cells assessed as ratio of caspase-3 to GAPDH expression level at 2 uM after 48 hrs by Western blot analysis (reference value: 0.25); type: functional
HepG2 [28] = experiment: Downregulation of Bcl2 protein expression in human HepG2 cells assessed as ratio of Bcl2 to GAPDH expression level at 1 uM after 48 hrs by Western blot analysis (reference value: 0.97); type: functional
PC-3 = experiment: Antiproliferative activity against human PC3 cells after 48 hrs by MTT assay; type: functional, cell-based; conditions: PC-3, 48 h
HepG2 [29] = experiment: Induction of mitochondrial membrane depolarization in human HepG2 cells at 0.5 uM after 48 hrs by JC-1 staining based flow cytometry (reference value: 1.3%); type: functional
HepG2 [30] = experiment: Downregulation of Bcl2 protein expression in human HepG2 cells assessed as ratio of Bcl2 to GAPDH expression level at 0.5 uM after 48 hrs by Western blot analysis (reference value: 0.97); type: functional
HepG2 [31] = experiment: Induction of apoptosis in human HepG2 cells assessed as late apoptotic cells at 0.5 uM after 48 hrs by Annexin V-FITC/propidium iodide staining based flow cytometry (reference value: 0.02%); type: functional
HepG2 [32] = experiment: Downregulation of Bcl2 protein expression in human HepG2 cells assessed as ratio of Bcl2 to GAPDH expression level at 2 uM after 48 hrs by Western blot analysis (reference value: 0.97); type: functional
HepG2 [33] = experiment: Cell cycle arrest in human HepG2 cells assessed as accumulation at G2-phase at 1 uM after 48 hrs by propidium iodide staining based flow cytometry (reference value: 32.61%); type: functional
HepG2 [34] = experiment: Induction of mitochondrial membrane depolarization in human HepG2 cells at 2 uM after 48 hrs by JC-1 staining based flow cytometry (reference value: 1.3%); type: functional
HepG2 [35] = experiment: Induction of mitochondrial membrane depolarization in human HepG2 cells at 1 uM after 48 hrs by JC-1 staining based flow cytometry (reference value: 1.3%); type: functional

Structure (SMILES): Cc1ccc(-n2cc(CNC(=O)[C@]34CCC(C)(C)C[C@H]3C3=CC[C@@H]5[C@@]6(C)CC[C@H](O[C@@H]7OC[C@H](O[C@@H]8O[C@H](CO)[C@@H](O)[C@H](O)[C@H]8O)[C@H](O)[C@H]7O[C@@H]7O[C@@H](C)[C@H](O)[C@@H](O)[C@H]7O)C(C)(C)[C@@H]6CC[C@@]5(C)[C@]3(C)CC4)nn2)cc1
- Activity (HepG2 [1]): 21.07%
- pIC50 (A549): 5.58
- pIC50 (HL-60): 6.09
- Activity (HepG2 [2]): Active
- Activity (HepG2 [3]): 48.4%
- pIC50 (HepG2 [4]): 6.27
- Activity (HepG2 [5]): 35.77%
- Activity (HepG2 [6]): 39.32%
- Activity (HepG2 [7]): 21.58%
- Activity (HepG2 [8]): 11.33%
- Activity (HepG2 [9]): 17.87%
- pIC50 (HT-29): 6.03
- Activity (HepG2 [10]): 53.1%
- Activity (HepG2 [11]): 18.01%
- Ratio (HepG2 [12]): 0.4
- Activity (HepG2 [13]): Dose-dependent effect
- Activity (HepG2 [14]): 33.29%
- Activity (HepG2 [15]): 0.3%
- Ratio (HepG2 [16]): 0.45
- Activity (HepG2 [17]): Dose-dependent effect
- Activity (HepG2 [18]): 49.35%
- Activity (HepG2 [19]): 1.51%
- pIC50 (U-937): 6.14
- Activity (HepG2 [20]): 48.7%
- Activity (HepG2 [21]): 41.56%
- Activity (HepG2 [22]): 35.92%
- Activity (HepG2 [23]): 0.56%
- Activity (HepG2 [24]): 74.94%
- Activity (HepG2 [25]): Dose-dependent effect
- Activity (HepG2 [26]): 24.76%
- Ratio (HepG2 [27]): 0.63
- Ratio (HepG2 [28]): 0.47
- pIC50 (PC-3): 6.27
- Activity (HepG2 [29]): 15.98%
- Ratio (HepG2 [30]): 0.64
- Activity (HepG2 [31]): 6.89%
- Ratio (HepG2 [32]): 0.19
- Activity (HepG2 [33]): 15.68%
- Activity (HepG2 [34]): 54.12%
- Activity (HepG2 [35]): 33.51%
